In ChEMBL document CHEMBL1201862, “PubChem BioAssay data set” (2004):
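Compound exposure: 48 hours, 5 concentrations, 96-well plates. GI50: concentration for 50% inhibition of growth.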 Calls of active or inactive are those of the source. Rule as the data show it: active = GI50 up to about 1.1 µM and inactive = higher.

Key:
Assay in all cases: growth of human tumour cells (NCI), 48 h
[1] = test system: SF-295
[2] = test system: NCI-H522
[3] = test system: U-251
[4] = test system: SK-MEL-2
[5] = test system: LXFL 529
[6] = test system: MOLT-4
[7] = test system: IGROV-1
[8] = test system: Malme-3M
[9] = test system: TK-10
[10] = test system: OVCAR-8
[11] = test system: ACHN
[12] = test system: HCT-116
[13] = test system: K562
[14] = test system: UACC-257
[15] = test system: NCI-H226
[16] = test system: HT-29
[17] = test system: CAKI-1
[18] = test system: OVCAR-5
[19] = test system: BT-549
[20] = test system: Hs-578T

Row | Structure (SMILES) | GI50 [1] | GI50 [2] | GI50 [3] | GI50 [4] | GI50 [5] | GI50 [6] | GI50 [7] | GI50 [8] | GI50 [9] | GI50 [10] | GI50 [11] | GI50 [12] | GI50 [13] | GI50 [14] | GI50 [15] | GI50 [16] | GI50 [17] | GI50 [18] | GI50 [19] | GI50 [20]
1 | CC(Oc1ccc(OCC2CCCCC2)cc1)C(=O)O (stereo not drawn) | > 100 µM (inactive) | > 100 µM (inactive) | > 100 µM (inactive) | > 100 µM (inactive) | > 100 µM (inactive) | > 100 µM (inactive) | > 100 µM (inactive) | > 100 µM (inactive) | > 100 µM (inactive) | > 100 µM (inactive) | > 100 µM (inactive) | > 100 µM (inactive) | > 100 µM (inactive) | > 100 µM (inactive) | > 100 µM (inactive) | > 100 µM (inactive) |  |  |  | 
2 | Cc1cc(C)nc(NS(=O)(=O)c2ccc(Nc3c4ccccc4nc4c(C(=O)Nc5ccc(S(N)(=O)=O)cc5)cccc34)cc2)n1 | > 100 µM (inactive) | 30.8 µM (inactive) | 58.3 µM (inactive) | > 100 µM (inactive) | 88.9 µM (inactive) | > 100 µM (inactive) | > 100 µM (inactive) | > 100 µM (inactive) | > 10 µM (inactive) | > 100 µM (inactive) | > 100 µM (inactive) | 83.8 µM (inactive) | 72.4 µM (inactive) | > 100 µM (inactive) |  | > 100 µM (inactive) | > 100 µM (inactive) | > 100 µM (inactive) |  | 
3 | CC(=O)OC1CCC2C(=CCC3C2(C)C(=O)CC2(C)C(C4(C)OC(C(C)C)=CC4=O)C(O)CC32C)C1(C)C (stereo not drawn) |  | 35.5 µM (inactive) | 39.4 µM (inactive) | 27.1 µM (inactive) | 31.3 µM (inactive) | 32.4 µM (inactive) | 62.4 µM (inactive) | 21.5 µM (inactive) |  | 43.7 µM (inactive) | 40.7 µM (inactive) | > 10 µM (inactive) | 35.5 µM (inactive) |  | 75 µM (inactive) | 17.8 µM (inactive) | 45 µM (inactive) | > 100 µM (inactive) |  | 
4 | Cc1ccccc1NC(=O)C(=O)C(C(=O)c1ccccc1F)C1OC(=O)c2ccccc21 (stereo not drawn) |  | 5.68 µM (inactive) | 7.53 µM (inactive) | 24.7 µM (inactive) | 13.4 µM (inactive) | 9.59 µM (inactive) |  | 18.8 µM (inactive) | 43 µM (inactive) | > 10 µM (inactive) | 43.7 µM (inactive) | 15 µM (inactive) | 24.3 µM (inactive) | 21.1 µM (inactive) | 3.38 µM (inactive) | 40.3 µM (inactive) | 21.1 µM (inactive) | 41.8 µM (inactive) |  | 
5 | Nc1nc(Cc2ccccc2)nc(Cc2ccccc2)c1-c1ccccc1 | 25.6 µM (inactive) | 16.9 µM (inactive) | 17.9 µM (inactive) | 13.6 µM (inactive) |  | 11.2 µM (inactive) | 26.4 µM (inactive) | 20.4 µM (inactive) | 56.9 µM (inactive) | 28.7 µM (inactive) | 29 µM (inactive) | 19.5 µM (inactive) | 18 µM (inactive) | 37.3 µM (inactive) | 19.2 µM (inactive) | 21.9 µM (inactive) | 39.5 µM (inactive) | 29.1 µM (inactive) | 20.6 µM (inactive) | 85.7 µM (inactive)
6 | CN(C)CCCN1c2ccc3ccccc3c2Sc2cccc(Cl)c21 | 3.91 µM (inactive) | 2.61 µM (inactive) | 2.18 µM (inactive) | 1.99 µM (inactive) |  | 2.14 µM (inactive) | 1.54 µM (inactive) | 5.13 µM (inactive) | 2.52 µM (inactive) | 4.33 µM (inactive) | 3.38 µM (inactive) | 3.79 µM (inactive) | 1.73 µM (inactive) | 1.69 µM (inactive) | 7.11 µM (inactive) | 2.04 µM (inactive) | 5.33 µM (inactive) | 5.13 µM (inactive) | 15.1 µM (inactive) | 0.665 µM (active)
7 | C=CC[C@H](O)[C@@](NC(=O)OCc1ccccc1)(Sc1ccc(C)cc1)C(F)(F)F | 21.9 µM (inactive) | 15.5 µM (inactive) | 14.5 µM (inactive) | 26.8 µM (inactive) |  | 20.3 µM (inactive) | 10.1 µM (inactive) | 56.8 µM (inactive) | 33.8 µM (inactive) | 16.9 µM (inactive) | > 100 µM (inactive) | 20.5 µM (inactive) | 35 µM (inactive) | 23.4 µM (inactive) | 16.5 µM (inactive) | 23.9 µM (inactive) | 24.7 µM (inactive) | 28.3 µM (inactive) | 10.9 µM (inactive) | 24 µM (inactive)
8 | COc1cc(-c2cc(=O)c3c(OC)c(OC)c(OC)cc3o2)c(OC)c(OC)c1OC | > 75 µM (inactive) | > 75 µM (inactive) | > 75 µM (inactive) | 45.6 µM (inactive) |  | 40.2 µM (inactive) | > 75 µM (inactive) | > 75 µM (inactive) | > 75 µM (inactive) | > 75 µM (inactive) | > 75 µM (inactive) | > 75 µM (inactive) | 39.1 µM (inactive) | > 75 µM (inactive) | > 75 µM (inactive) | > 75 µM (inactive) | > 75 µM (inactive) | > 75 µM (inactive) | 51.5 µM (inactive) | > 75 µM (inactive)
9 | Cc1c(-c2coc(-c3ccc(Cl)cc3)n2)c(=O)n(-c2ccccc2)n1C | > 100 µM (inactive) | > 100 µM (inactive) | > 100 µM (inactive) | > 100 µM (inactive) | > 100 µM (inactive) | > 100 µM (inactive) | > 100 µM (inactive) | > 100 µM (inactive) | > 100 µM (inactive) | > 100 µM (inactive) | > 100 µM (inactive) | > 100 µM (inactive) |  | > 100 µM (inactive) | > 100 µM (inactive) | > 100 µM (inactive) |  | > 100 µM (inactive) |  | 
10 | C[C@]12CC/C(=N\OCCN3CCCCC3)C=C1CCC1C2CC[C@@]2(C)C1CC[C@]2(C)O (stereo partly drawn) | 3.5 µM (inactive) | 2.24 µM (inactive) | 10.7 µM (inactive) | 13.1 µM (inactive) |  | 2.64 µM (inactive) | 11.9 µM (inactive) | 11.2 µM (inactive) | 12.4 µM (inactive) | 11.2 µM (inactive) | 11.4 µM (inactive) | 7.38 µM (inactive) | 5.26 µM (inactive) | 5.57 µM (inactive) | 3.3 µM (inactive) | 2.28 µM (inactive) | 6.75 µM (inactive) | 19.6 µM (inactive) | 10 µM (inactive) | 8.61 µM (inactive)
11 | C#CCn1c(=O)c(Cl)cn(/C(=C/C(=O)OCC)C(=O)OCC)c1=O | > 47.5 µM (inactive) | 3.38 µM (inactive) | 17.7 µM (inactive) | 17.4 µM (inactive) |  | 2.28 µM (inactive) | 17.3 µM (inactive) | 3.86 µM (inactive) | 2.43 µM (inactive) | 5.48 µM (inactive) | 2.03 µM (inactive) | 4.69 µM (inactive) | 1.7 µM (inactive) | 5.07 µM (inactive) | > 43.1 µM (inactive) | 18.4 µM (inactive) | 2.99 µM (inactive) | 16.9 µM (inactive) | 18.5 µM (inactive) | 42.9 µM (inactive)
12 | O=C([O-])C[n+]1ccccc1.c1ccncc1 | > 100 µM (inactive) | > 100 µM (inactive) | > 100 µM (inactive) | > 100 µM (inactive) |  | 33.1 µM (inactive) | > 100 µM (inactive) | > 100 µM (inactive) | > 100 µM (inactive) | > 100 µM (inactive) | > 100 µM (inactive) | > 100 µM (inactive) | > 100 µM (inactive) | > 100 µM (inactive) | > 100 µM (inactive) | > 100 µM (inactive) | > 100 µM (inactive) | > 100 µM (inactive) | > 100 µM (inactive) | > 100 µM (inactive)
13 | COc1cc(/C=C/c2ccncc2)cc(OC)c1OC | > 100 µM (inactive) | 32.3 µM (inactive) | > 100 µM (inactive) |  | 55 µM (inactive) | 65.8 µM (inactive) | 74.6 µM (inactive) | > 100 µM (inactive) | 41 µM (inactive) | > 100 µM (inactive) | > 100 µM (inactive) | > 100 µM (inactive) | 52.7 µM (inactive) | > 100 µM (inactive) | > 100 µM (inactive) | 64.3 µM (inactive) | 49 µM (inactive) | 38.8 µM (inactive) |  | 
14 | CO/N=C(/C(=O)OC)c1ccccc1COc1ccccc1C(F)(F)F | 10.7 µM (inactive) | 14.7 µM (inactive) | 31.6 µM (inactive) | 20.8 µM (inactive) |  | 15.1 µM (inactive) | 20.7 µM (inactive) | 11.6 µM (inactive) | 54.5 µM (inactive) | > 100 µM (inactive) | 83.6 µM (inactive) | 25.1 µM (inactive) | 19.6 µM (inactive) | 16 µM (inactive) | 68.4 µM (inactive) | 26.1 µM (inactive) | 20.1 µM (inactive) | > 100 µM (inactive) | 79.1 µM (inactive) | 47.3 µM (inactive)
15 | O=P12N(CCN1c1ccccc1)CCN2c1ccccc1 | > 100 µM (inactive) | 84.1 µM (inactive) | > 100 µM (inactive) | > 100 µM (inactive) |  | > 100 µM (inactive) | > 100 µM (inactive) | > 100 µM (inactive) | > 100 µM (inactive) | > 100 µM (inactive) | > 100 µM (inactive) | > 100 µM (inactive) | > 100 µM (inactive) | > 100 µM (inactive) | > 100 µM (inactive) | > 100 µM (inactive) | > 100 µM (inactive) | > 100 µM (inactive) | > 100 µM (inactive) | > 100 µM (inactive)
